Where no end group is shown, it is not given here.
Key:
[1] = MTT viability of fibroblasts over three days; type: cell-based, human; settings: human, adult fibroblasts (HDFa cells)
Protocol: (§1) MTT assay: Cell viability and proliferation is widely assessed by the MTT assay as already described previously.
(§2) The fibroblasts cells, Neonatal (HDFn) and Adult (HDFa), were both grown until greater than 80% confluent. […] After 24 hour incubation the culture medium was replaced with fresh medium containing an appropriate amount of the peptide for investigation.
(§3) The viability of the fibroblasts, Adult (HDFa) and Neonatal (HDFn) cells in the presence of surfactants was tested by MTT assay over three days relative to control wells containing cells only.

[2] = test system: fibroblasts Adult (HDFa) cells; test: MTT viability of fibroblasts over three days; type: cell-based, human
Protocol: as §1, §2, §3

E. coli, (EC) = test: Bacterial growth by optical density, peptides with or without surfactants; type: cell-based, Escherichia coli
Protocol: Bacteria E. coli, (EC) and S. aureus, (SA) were grown in LB media at 37° C. with continuous shaking for 24 hours. The bacterial concentration was then adjusted such that the absorbance at 600 (A600) was controlled to ca 0.2 unit. The bacteria suspensions with the peptides were incubated in 96-well tissue culture plates. The total medium volume in each well was […]. […] Controls with media only and media with bacteria only were run alongside the peptide bacteria mixed suspensions. Measurements were taken at time t=0, t=20 and t=72 hours using optical density cell plate reader. The optical density (OD) is representative of the relative amount of bacterial growth within the medium.
The antibacterial activities of the designed short peptides in the presence of selected surfactants were investigated to determine if the peptides would sustain their antibacterial performance when surfactants are present. Bacteria E. coli, (EC) and S. aureus, (SA) were grown in LB media at 37° C. with continuous shaking for 24 hours. The bacterial concentrations were then adjusted such that the absorbance at 600 (A600) was controlled to ca 0.2 unit. The bacteria suspensions with the peptides were incubated in 96-well tissue culture plates. The total medium volume in each well was […]. […] Controls used were (i) media only, (ii) media with bacteria only and (iii) bacteria with media containing peptides at a particular concentration. These were run alongside the peptide+bacteria and selected surfactant mixed suspensions. Measurements were taken at time t=0, t=20 and t=72 hours using optical density cell plate reader. Surfactants were added such that the final concentration was 1% within the wells.

Q: Which results are given for “GIIKKIIKKI-NH2 [Helix G2, G(IIKK)2 I-NH2]”?
A: viability at 24 h, 5 µM [1]: 101%; viability at 24 h, 25 µM [1]: 98%; viability at 24 h, 50 µM [1]: 92%; viability at 24 h, 100 µM [1]: 91%; viability at 48 h, 5 µM [1]: 96%; viability at 48 h, 25 µM [1]: 90%; viability at 48 h, 50 µM [1]: 90%; viability at 48 h, 100 µM [1]: 88%; viability at 72 h, 5 µM [1]: 95%; viability at 72 h, 25 µM [1]: 88%; viability at 72 h, 50 µM [1]: 79%; viability at 72 h, 100 µM [1]: 80%

Q: Which “MTT results (relative MTT reading)” value ([2]; human, 1 day, 1 %) does the source give for `CCCCCCCCCCCCOCCOCCOCCOCCOCCOCCO` [Helix C12E6, Hexaethylene glycol monododecyl ether] here?
A: 0.01

Q: And the “MTT results (relative MTT reading)” value ([2]; human, 2 day, 1 %)?
A: 0.01

Q: And the “MTT results (relative MTT reading)” value ([2]; human, 3 day, 1 %)?
A: 0.01

Q: What does the source list for `CCCCCCCCCCCCOS(=O)(=O)[O-].[Na+]` [SDS, Sodium dodecyl sulphate]?
A: MTT results (relative MTT reading) ([2]; HDFa, surfactant 1%, Day 1): 0.01; MTT results (relative MTT reading) ([2]; HDFa, surfactant 1%, Day 2): 0.01; MTT results (relative MTT reading) ([2]; HDFa, surfactant 1%, Day 3): 0.01

Q: What does the source list for `CCCCCCCCCCCCOCCOCCOCCOCCOCCO` [Helix C12E5, Pentaethylene glycol monododecyl ether]?
A: MTT results (relative MTT reading) ([2]; human, 1 day, 0.5 %): 0.01; MTT results (relative MTT reading) ([2]; human, 2 day, 0.5 %): 0.01; MTT results (relative MTT reading) ([2]; human, 3 day, 0.5 %): 0.01

Q: Which “bacterial growth (optical density)” value (E. coli, (EC); T = 0 HOUR, NO SURF, 25 μM) does the source give for `CC1(C)S[C@@H]2[C@H](NC(=O)[C@H](N)c3ccccc3)C(=O)N2[C@H]1C(=O)O` [Ampicillin, ampicillin] here?
A: 0.20

Q: What about the “bacterial growth (optical density)” value (E. coli, (EC); T = 0 HOUR, NO SURF, 50 μM) of the same compound?
A: 0.20

Q: What about the “bacterial growth (optical density)” value (E. coli, (EC); T = 0 HOUR, NO SURF, 100 μM) of the same compound?
A: 0.19

Q: What about the “bacterial growth (optical density)” value (E. coli, (EC); T = 0 HOUR, with 1% C12TAB, 25 μM) of the same compound?
A: 0.27

Q: And the “bacterial growth (optical density)” value (E. coli, (EC); T = 0 HOUR, with 1% C12TAB, 50 μM)?
A: 0.26

Q: And the “bacterial growth (optical density)” value (E. coli, (EC); T = 0 HOUR, with 1% C12TAB, 100 μM)?
A: 0.27

Q: And the “bacterial growth (optical density)” value (E. coli, (EC); T = 0 HOUR, with 1% F127, 25 μM)?
A: 0.20

Q: What about the “bacterial growth (optical density)” value (E. coli, (EC); T = 0 HOUR, with 1% F127, 50 μM) of the same compound?
A: 0.20

Q: What about the “bacterial growth (optical density)” value (E. coli, (EC); T = 0 HOUR, with 1% F127, 100 μM) of the same compound?
A: 0.17

Q: What about the “bacterial growth (optical density)” value (E. coli, (EC); T = 0 HOUR, with 1% Mx, 25 μM) of the same compound?
A: 0.21

Q: And the “bacterial growth (optical density)” value (E. coli, (EC); T = 0 HOUR, with 1% Mx, 50 μM)?
A: 0.20

Q: What about the “bacterial growth (optical density)” value (E. coli, (EC); T = 0 HOUR, with 1% Mx, 100 μM) of the same compound?
A: 0.20

Q: What about the “bacterial growth (optical density)” value (E. coli, (EC); T = 0 HOUR, with 1% SLES, 25 μM) of the same compound?
A: 0.22

Q: And the “bacterial growth (optical density)” value (E. coli, (EC); T = 0 HOUR, with 1% SLES, 50 μM)?
A: 0.18

Q: And the “bacterial growth (optical density)” value (E. coli, (EC); T = 0 HOUR, with 1% SLES, 100 μM)?
A: 0.15

Q: What about the “bacterial growth (optical density)” value (E. coli, (EC); T = 0 HOUR, with 1% Tt, 25 μM) of the same compound?
A: 0.22

Q: And the “bacterial growth (optical density)” value (E. coli, (EC); T = 0 HOUR, with 1% Tt, 50 μM)?
A: 0.15

Q: And the “bacterial growth (optical density)” value (E. coli, (EC); T = 0 HOUR, with 1% Tt, 100 μM)?
A: 0.14

Q: And the “bacterial growth (optical density)” value (E. coli, (EC); T = 20 HOUR, NO SURF, 25 μM)?
A: 0.20

Q: And the “bacterial growth (optical density)” value (E. coli, (EC); T = 20 HOUR, NO SURF, 50 μM)?
A: 0.16

Q: What about the “bacterial growth (optical density)” value (E. coli, (EC); T = 20 HOUR, NO SURF, 100 μM) of the same compound?
A: 0.16

Q: And the “bacterial growth (optical density)” value (E. coli, (EC); T = 20 HOUR, with 1% C12TAB, 25 μM)?
A: 0.27

Q: And the “bacterial growth (optical density)” value (E. coli, (EC); T = 20 HOUR, with 1% C12TAB, 50 μM)?
A: 0.26

Q: And the “bacterial growth (optical density)” value (E. coli, (EC); T = 20 HOUR, with 1% C12TAB, 100 μM)?
A: 0.26

Q: And the “bacterial growth (optical density)” value (E. coli, (EC); T = 20 HOUR, with 1% F127, 25 μM)?
A: 0.15

Q: And the “bacterial growth (optical density)” value (E. coli, (EC); T = 20 HOUR, with 1% F127, 50 μM)?
A: 0.13

Q: And the “bacterial growth (optical density)” value (E. coli, (EC); T = 20 HOUR, with 1% F127, 100 μM)?
A: 0.14

Q: What about the “bacterial growth (optical density)” value (E. coli, (EC); T = 20 HOUR, with 1% Mx, 25 μM) of the same compound?
A: 0.32

Q: What about the “bacterial growth (optical density)” value (E. coli, (EC); T = 20 HOUR, with 1% Mx, 50 μM) of the same compound?
A: 0.28

Q: What about the “bacterial growth (optical density)” value (E. coli, (EC); T = 20 HOUR, with 1% Mx, 100 μM) of the same compound?
A: 0.25

Q: And the “bacterial growth (optical density)” value (E. coli, (EC); T = 20 HOUR, with 1% SLES, 25 μM)?
A: 0.08

Q: And the “bacterial growth (optical density)” value (E. coli, (EC); T = 20 HOUR, with 1% SLES, 50 μM)?
A: 0.08

Q: What about the “bacterial growth (optical density)” value (E. coli, (EC); T = 20 HOUR, with 1% SLES, 100 μM) of the same compound?
A: 0.06

Q: And the “bacterial growth (optical density)” value (E. coli, (EC); T = 20 HOUR, with 1% Tt, 25 μM)?
A: 0.09

Q: What about the “bacterial growth (optical density)” value (E. coli, (EC); T = 20 HOUR, with 1% Tt, 50 μM) of the same compound?
A: 0.07

Q: What about the “bacterial growth (optical density)” value (E. coli, (EC); T = 20 HOUR, with 1% Tt, 100 μM) of the same compound?
A: 0.07

Source: patent publication US9745348B2 (The University of Manchester, priority 2011, dated 2017)
